Broadly, the IC50 is the point on the concentration scale where inhibition reaches its midpoint.

The record followed here is patent publication US20110318266A1, “PHTHALIMIDE DERIVATIVE METABOTROPIC GLUTAMATE R4 LIGANDS” (priority 2008, published 2011).

For assay [1], the target named is T1, mGluR4 (Homo sapiens, UniProt Q14833). As to the kind of experiment: Fluorescent Plate Imaging Reader (FLIPR) Assay for mGluR4 Potentiators. Details: expressed in transfected cells. The conditions noted are these: for Emax: maximal activity relative to response with saturating concentration (10 uM) of agonist L-AP4, read-out: mGlu4 FLIPR % Max Efficacy; for EC50: potentiator response with EC10 concentration of L-AP4 (30 nM), inflection point of the curve, read-out: mGluR4 FLIPR Potency. It counts as cell-based. As to the method: Cells are grown in Corning T162 cm^2 flasks in DMEM growth media at 37° C. and 5% CO2. Growth media contains: Gibco DMEM supplemented with 10% defined FBS, 1% GlutaMax −1, 1% sodium pyruvate, 1% NEAA, 1% Pen/Strep, 250 ug/ml zeocin, 25 mM HEPES, 0.1% 2-Mercaptoethanol, 600 ug/ml Hygromycin B, 7.5 ug/ml blasticidin, and 5 ug/ml puromycin.
The day prior to the experiment the cells were plated in growth medium (minus glutamine) at 50K cells/well into Becton-Dickinson 384-well PDL-coated plates using a Labsystems Multidrop (0.1 ml/well). The cells are grown overnight at 37° C. and 6% CO2.
The following day, the cells are washed with Assay Buffer at 37° C. using a Skatron EMBLA cell washer (3×100 μl, aspiration 3 mm from bottom will leave 30 μl of buffer in each well). Assay buffer is Hanks balanced salt solution with 20 mM HEPES, 2.5 mM probenecid and 0.1% BSA.
Fluorescent dye, 30 μl of the diluted Fluo-4-AM, is added to each well of the plate. The Fluo-4-AM solution is added to achieve a final concentration in the assay of 2 uM Fluo-4-AM, 0.02% pluronic acid and 1% FBS. The assay plates are placed back into the 6% CO2 incubator and incubated at 37° C. for 60 min. The 384-well plates are washed with Assay Buffer at 37° C. on using a cell washer (3×100 μl, aspiration 3 mm from bottom, will leave 30 μl of buffer in each well). The experimental run is initiated and after 30 sec a dose of test compound is applied. The fluorescent response elicited by test compound is monitored for 5 min, any positive response detected at this stage is attributed to agonist properties of the test compound. At this point an EC10 concentration of the mGluR4 agonist L-AP4 ((S)-2-amino-4-phosphonobutanoate) (final concentration 30 nM) is added and the fluorescent response is monitored for an additional 3 minutes, any positive response detected at this stage is attributed to potentiator properties of the test compound.
Controls for the assay include a no compound control, a positive control which is a saturating concentration, 10 uM, of the agonist L-AP4. A 10 point dose response, with either 2-fold or 3-fold dilution steps, is performed and curve fitting algorithms, suitable for a sigmoidal dose response relationship, are used to fit the data. The inflection point of the curve provides a measure of compound potency.
A comparison of the maximal level of activity achieved for a test compound, relative to the response achieved with a saturating concentration of the agonist L-AP4 provides a measure of compound efficacy.

Assay [2] addresses T1, mGluR4. As to the kind of experiment: mGluR4 Binding Assay. Details: expressed in transfected cells; host or cells: CHO cells. The conditions noted are these: membranes from CHO cells expressing human mGluR4; 20 uM L-AP4; 7 nM radiotracer [3H]-N-(4-{[(2-Chlorophenyl)amino]sulfonyl}phenyl)pyridine-2-carboxamide.
Description: Membranes were prepared from CHO cells expressing the human mGluR4 receptor. Cells were harvested using trypsin and then washed in assay buffer, assay buffer contains 50 mM HEPES, 1 mM EDTA and protease inhibitors (Boehringer Mannheim catalog #1 836 170). Harvested cells were pelleted by centrifugation and stored at −80° C. for a minimum of 12 hours. Cells were resuspended in assay buffer and lysed by a polytron, a low speed spin, 2000×g for 10 min, was used to recover unbroken cells for additional treatment using the polytron. The cleared supernatant from the low speed spins was subjected to a high speed spin, 96,000×g for 1 hour. The membrane pellet from the high speed spin was resuspended in assay buffer and used in the mGluR4 binding assay.
The binding assay follows a standard filtration binding paradigm. The binding buffer consists of 20 mM HEPES, 100 mM NaCl and 3 mM MgCl2, the pH of the buffer is 7.4. The assay is performed in a 96-well format with each well containing test compound, 25 to 50 ug of membrane protein, 20 uM L-AP4, and 7 nM radiotracer, [^3H]—N-(4-{[(2-Chlorophenyl)amino]sulfonyl}phenyl)pyridine-2-carboxamide, which is disclosed in commonly owned U.S. patent application docket no.
The binding reaction is incubated at room temperature for 1 hour, and then is passed through GF/B filter that was presoaked with 0.5% PEI. The cell membranes are collected on the filter and then washed five times with ˜5 ml ice cold binding buffer that contains 0.01% BSA. The washed filter plate is dried for 30 minutes at 37° C., scintillation fluid is added, and the amount of filter bound radioactivity is determined using a TopCount instrument. […] To determine the level of non-specific binding for the radiotracer [^3H]—N-(4-{[(2-Chlorophenyl)amino]sulfonyl}phenyl)pyridine-2-carboxamide, 5 uM of unlabeled [^3H]—N-(4-{[(2-Chlorophenyl)amino]sulfonyl}phenyl)pyridine-2-carboxamide is added to determine the level of non-specific binding. […]

T1 sequence (Q14833 33-912): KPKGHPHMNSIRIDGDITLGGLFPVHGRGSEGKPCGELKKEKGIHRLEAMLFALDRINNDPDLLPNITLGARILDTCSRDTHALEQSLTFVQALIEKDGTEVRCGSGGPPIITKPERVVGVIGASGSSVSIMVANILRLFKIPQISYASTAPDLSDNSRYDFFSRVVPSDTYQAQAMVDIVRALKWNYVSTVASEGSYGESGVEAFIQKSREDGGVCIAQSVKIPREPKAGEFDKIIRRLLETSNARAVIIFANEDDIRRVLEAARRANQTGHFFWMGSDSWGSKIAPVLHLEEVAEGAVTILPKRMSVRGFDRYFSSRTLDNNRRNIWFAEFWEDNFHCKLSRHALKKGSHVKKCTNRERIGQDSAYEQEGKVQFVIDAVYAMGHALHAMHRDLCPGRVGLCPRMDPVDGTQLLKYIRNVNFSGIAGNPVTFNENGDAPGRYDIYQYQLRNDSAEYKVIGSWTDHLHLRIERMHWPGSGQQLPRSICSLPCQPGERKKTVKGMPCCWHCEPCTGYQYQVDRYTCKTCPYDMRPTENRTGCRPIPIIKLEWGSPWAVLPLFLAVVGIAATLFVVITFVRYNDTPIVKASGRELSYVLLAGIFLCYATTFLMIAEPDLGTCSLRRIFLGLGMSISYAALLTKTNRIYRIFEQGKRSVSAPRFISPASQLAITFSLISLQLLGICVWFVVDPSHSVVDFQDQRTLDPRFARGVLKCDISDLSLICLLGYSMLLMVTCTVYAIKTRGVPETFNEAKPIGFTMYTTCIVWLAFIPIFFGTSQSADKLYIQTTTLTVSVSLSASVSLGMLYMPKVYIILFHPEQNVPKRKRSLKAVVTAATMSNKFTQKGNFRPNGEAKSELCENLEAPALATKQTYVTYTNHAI

As to `Cc1cccc2c1C(=O)N(c1ccc(NC(=O)c3ccccn3)cc1Cl)C2=O` [Example 13, N-[3-chloro-4-(4-methyl-1,3-dioxo-1,3-dihydro-2H-isoindol-2-yl)phenyl]pyridine-2-carboxamide], on mGluR4 [1], the Emax was found to be 125% and the EC50 worked out at 43.6 nM.
In the same order, the values of `O=C(Nc1ccc(N2C(=O)c3cccc(F)c3C2=O)c(Cl)c1)c1ccccn1` [Example 10, N-[3-chloro-4-(4-fluoro-1,3-dioxo-1,3-dihydro-2H-isoindol-2-yl)phenyl]pyridine-2-carboxamide] are 110% and 50.4 nM.
`Cc1cc(NC(=O)c2ccccn2)ccc1N1C(=O)c2ccccc2C1=O` [Example 3, N-[4-(1,3-dioxo-1,3-dihydro-2H-isoindol-2-yl)-3-methylphenyl]pyridine-2-carboxamide]: on mGluR4 [1], the Emax was found to be 104% and the EC50 is 390 nM. This compound came in with an IC50 at mGluR4 [2] of 1720 nM.
On to `O=C(Nc1ccc(N2C(=O)c3ccccc3C2=O)cc1)c1ccccn1` [Example 1, N-[4-(1,3-dioxo-1,3-dihydro-2H-isoindol-2-yl)phenyl]pyridine-2-carboxamide], for which, at mGluR4 [1], the Emax came out at 52% and the EC50 came to 341 nM. The same compound had an IC50 on mGluR4 [2] of 712 nM.
In the same order, the values of `Cc1cccc2c1C(=O)N(c1ccc(NC(=O)c3ccccn3)cc1Br)C2=O` [Example 29, N-[3-bromo-4-(4-methyl-1,3-dioxo-1,3-dihydro-2H-isoindol-2-yl)phenyl]pyridine-2-carboxamide] are 109%, 101 nM and 12 nM.
